The source of these data is patent publication US12570662B2, “Substituted pyrrolo[1,2-b]pyridazines as bifunctional degraders of interleukin-1 receptor-associated kinases” (Nurix Therapeutics, Inc., priority 2021, dated 2026).

SMILES strings stand for the structures. Where two headings read alike, the source gives them in different places.

This assay has as its target T1, IRAK4 (Homo sapiens, UniProt Q9NWZ3).
T1 construct: C-terminal HiBiT-tagged Jurkat cells (polyclonal cell line or clone 8D5); endogenous in cells; host or cells: Jurkat cells (polyclonal cell line or clone 8D5), HiBiT-tagged
T1 sequence (Q9NWZ3 1-460): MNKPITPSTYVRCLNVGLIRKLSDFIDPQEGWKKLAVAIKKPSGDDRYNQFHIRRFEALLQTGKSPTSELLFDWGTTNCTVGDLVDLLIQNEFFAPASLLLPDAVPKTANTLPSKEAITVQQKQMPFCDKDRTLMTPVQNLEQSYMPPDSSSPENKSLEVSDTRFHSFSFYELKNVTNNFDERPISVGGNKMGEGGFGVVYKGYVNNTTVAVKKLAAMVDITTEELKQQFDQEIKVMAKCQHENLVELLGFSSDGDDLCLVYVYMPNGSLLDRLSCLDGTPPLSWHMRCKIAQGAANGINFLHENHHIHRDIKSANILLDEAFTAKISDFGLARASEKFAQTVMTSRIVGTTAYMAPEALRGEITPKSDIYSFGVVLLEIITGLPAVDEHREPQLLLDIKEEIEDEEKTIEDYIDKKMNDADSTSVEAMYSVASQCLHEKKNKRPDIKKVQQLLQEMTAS
In words: IRAK4 Degradation HiBit Assay. The format is cell-based. The conditions noted are these: C-terminal HiBiT-tagged Jurkat cells, 4 hrs incubation; for DC50: % IRAK4 remaining, four-parameter fit (IC50 used as DC50); for Dmax: from fit of % IRAK4 remaining. In short, it runs like this: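 Jurkat cells carrying C-terminal HiBiT-tagged IRAK4 (polyclonal or clone 8D5) exposed to compound, 10 μM–0.1 nM final over 11 points, for 4 h at 32 °C. Remaining IRAK4 measured by lytic HiBiT/LgBiT luminescence relative to DMSO. DC50 and Dmax taken from four-parameter variable-slope fits.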
(In general: The HiBiT peptide binds its large partner to form an active luciferase.)

`CCNc1cc(-c2ccc3cc(C#N)cnn23)ncc1-c1nnc(N2CC3CCC(C2)N3CC2CCN(c3ccc([C@H]4CCC(=O)NC4=O)cn3)CC2)s1` (racemic) [Example 89, rac-7-[5-(5-{8-[(1-{5-[(3R)-2,6-dioxopiperidin-3-yl]pyridin-2-yl}piperidin-4-yl)methyl]-3,8-diazabicyclo[3.2.1]octan-3-yl}-1,3,4-thiadiazol-2-yl)-4-(ethylamino)pyridin-2-yl]pyrrolo[1,2-b]pyridazine-3-carbonitrile]: the 50% degradation concentration (DC50) is 24 nM. Under “read-out: Dmax”, the Dmax was 112%.

Regarding `N#Cc1cnn2c(-c3cc(NC4CCOCC4)c(-c4nnc(C56CCC(CN7CCc8cc(C9CCC(=O)NC9=O)ccc8C7)(CC5)CC6)s4)cn3)ccc2c1` (racemic) [Example 90, rac-7-(5-{5-[4-({6-[(3R)-2,6-dioxopiperidin-3-yl]-1,2,3,4-tetrahydroisoquinolin-2-yl}methyl)bicyclo[2.2.2]octan-1-yl]-1,3,4-thiadiazol-2-yl}-4-[(oxan-4-yl)amino]pyridin-2-yl)pyrrolo[1,2-b]pyridazine-3-carbonitrile], half-maximal degradation (DC50) was put at 64 nM. Further, the Dmax (read-out: Dmax) was 25%.

For `N#Cc1cnn2c(-c3cc(NC4CCOCC4)c(-c4nnc(N5CCN(CC6CCN(c7ccc(N8CCC(=O)NC8=O)cc7)C6)CC5)s4)cn3)ccc2c1` (racemic) [Example 91, rac-7-{5-[5-(4-{[(3R)-1-[4-(2,4-dioxo-1,3-diazinan-1-yl)phenyl]pyrrolidin-3-yl]methyl}piperazin-1-yl)-1,3,4-thiadiazol-2-yl]-4-[(oxan-4-yl)amino]pyridin-2-yl}pyrrolo[1,2-b]pyridazine-3-carbonitrile], the half-maximal degradation concentration (DC50) turned out to be 97 nM. The Dmax (read-out: Dmax) turned out to be 32%.

In turn, `N#Cc1cnn2c(-c3cc(N[C@H]4CCOC4)c(-c4nnc(N5CCN(CC6CCN(c7ccc(C8CCC(=O)NC8=O)cn7)CC6)CC5)s4)cn3)ccc2c1` (mixture of isomers) [Example 92, 7-[5-(5-{4-[(1-{5-[(3RS)-2,6-dioxopiperidin-3-yl]pyridin-2-yl}piperidin-4-yl)methyl]piperazin-1-yl}-1,3,4-thiadiazol-2-yl)-4-{[(3S)-oxolan-3-yl]amino}pyridin-2-yl]pyrrolo[1,2-b]pyridazine-3-carbonitrile] showed a DC50 of 24 nM. Also, the Dmax (read-out: Dmax) is 114%.

For the molecule `N#Cc1cnn2c(-c3cc(N[C@@H]4CCOC4)c(-c4nnc(N5CC6CCC(C5)N6CC5CCN(c6ccc(C7CCC(=O)NC7=O)cn6)CC5)s4)cn3)ccc2c1` (mixture of isomers) [Example 94, 7-[5-(5-{8-[(1-{5-[(3RS)-2,6-dioxopiperidin-3-yl]pyridin-2-yl}piperidin-4-yl)methyl]-3,8-diazabicyclo[3.2.1]octan-3-yl}-1,3,4-thiadiazol-2-yl)-4-{[(3R)-oxolan-3-yl]amino}pyridin-2-yl]pyrrolo[1,2-b]pyridazine-3-carbonitrile], half-maximal degradation (DC50) was put at 10 nM. Further, for the setting “read-out: Dmax”, the Dmax was found to be 114%.

Turning to `N#Cc1cnn2c(-c3cc(NC4CC4)c(-c4nnc(N5CC6CCC(C5)N6CC5CCN(c6ccc([C@H]7CCC(=O)NC7=O)cn6)CC5)s4)cn3)ccc2c1` (racemic) [Example 95, rac-7-[4-(cyclopropylamino)-5-(5-{8-[(1-{5-[(3R)-2,6-dioxopiperidin-3-yl]pyridin-2-yl}piperidin-4-yl)methyl]-3,8-diazabicyclo[3.2.1]octan-3-yl}-1,3,4-thiadiazol-2-yl)pyridin-2-yl]pyrrolo[1,2-b]pyridazine-3-carbonitrile], the DC50 worked out at 27 nM. Further, the Dmax (read-out: Dmax) was 108%.

Take `N#Cc1cnn2c(-c3cc(NC4CCC4)c(-c4nnc(N5CC6CCC(C5)N6CC5CCN(c6ccc([C@H]7CCC(=O)NC7=O)cn6)CC5)s4)cn3)ccc2c1` (racemic) [Example 96, rac-7-[4-(cyclobutylamino)-5-(5-{8-[(1-{5-[(3R)-2,6-dioxopiperidin-3-yl]pyridin-2-yl}piperidin-4-yl)methyl]-3,8-diazabicyclo[3.2.1]octan-3-yl}-1,3,4-thiadiazol-2-yl)pyridin-2-yl]pyrrolo[1,2-b]pyridazine-3-carbonitrile]: the half-maximal degradation concentration (DC50) turned out to be 83 nM. In addition, the Dmax (read-out: Dmax) was determined as 103%.

Regarding `C[C@H](C#N)Nc1cc(-c2ccc3cc(C#N)cnn23)ncc1-c1nnc(N2CCN(CC3CCN(c4ccc(C5CCC(=O)NC5=O)cc4)CC3)CC2)s1` (mixture of isomers) [Example 97, 7-(4-{[(1R)-1-cyanoethyl]amino}-5-(5-{4-[(1-{4-[(3RS)-2,6-dioxopiperidin-3-yl]phenyl}piperidin-4-yl)methyl]piperazin-1-yl}-1,3,4-thiadiazol-2-yl)pyridin-2-yl)pyrrolo[1,2-b]pyridazine-3-carbonitrile], the DC50 was 18 nM. The Dmax (read-out: Dmax) is 111%.

`N#Cc1cnn2c(-c3cc(N[C@@H]4CCOC4)c(-c4nnc(N5CC6CCC(C5)N6CC5CCN(c6ccc(C7CCC(=O)NC7=O)cc6)CC5)s4)cn3)ccc2c1` (mixture of isomers) [Example 98, 7-[5-(5-{8-[(1-{4-[(3RS)-2,6-dioxopiperidin-3-yl]phenyl}piperidin-4-yl)methyl]-3,8-diazabicyclo[3.2.1]octan-3-yl}-1,3,4-thiadiazol-2-yl)-4-{[(3R)-oxolan-3-yl]amino}pyridin-2-yl]pyrrolo[1,2-b]pyridazine-3-carbonitrile] gave a DC50 of 16 nM. The Dmax (read-out: Dmax) amounted to 105%.

In the case of `N#Cc1cnn2c(-c3cc(NC4CC4)c(-c4nnc(N5CC6CCC(C5)N6CC5CCN(c6ccc([C@H]7CCC(=O)NC7=O)cc6)CC5)s4)cn3)ccc2c1` (racemic) [Example 99, rac-7-[4-(cyclopropylamino)-5-(5-{8-[(1-{4-[(3R)-2,6-dioxopiperidin-3-yl]phenyl}piperidin-4-yl)methyl]-3,8-diazabicyclo[3.2.1]octan-3-yl}-1,3,4-thiadiazol-2-yl)pyridin-2-yl]pyrrolo[1,2-b]pyridazine-3-carbonitrile], half-maximal degradation (DC50) was put at 56 nM. Moreover, the Dmax (read-out: Dmax) was found to be 73%.

As for `N#Cc1cnn2c(-c3cc(NC4CCOCC4)c(-c4nnc(N5CCN(C[C@H]6[C@H]7CN(c8ccc(C9CCC(=O)NC9=O)cn8)C[C@@H]67)CC5)s4)cn3)ccc2c1` (mixture of isomers) [Example 100, 7-{5-[5-(4-{[(1RS&,5SR&,6RS&)-3-{5-[(3RS)-2,6-dioxopiperidin-3-yl]pyridin-2-yl}-3-azabicyclo[3.1.0]hexan-6-yl]methyl}piperazin-1-yl)-1,3,4-thiadiazol-2-yl]-4-[(oxan-4-yl)amino]pyridin-2-yl}pyrrolo[1,2-b]pyridazine-3-carbonitrile], the 50% degradation concentration (DC50) is 20 nM and the Dmax was found to be 95%.

Regarding `N#Cc1cnn2c(-c3cc(NC4CCOCC4)c(-c4nnc(N5CC6CCC(C5)N6CC5[C@H]6CN(c7ccc([C@H]8CCC(=O)NC8=O)cn7)C[C@@H]56)s4)cn3)ccc2c1` (mixture of isomers) [Example 101, 7-{5-[5-(8-{[(1RS&,5SR&,6RS&)-3-{5-[(3RS)-2,6-dioxopiperidin-3-yl]pyridin-2-yl}-3-azabicyclo[3.1.0]hexan-6-yl]methyl}-3,8-diazabicyclo[3.2.1]octan-3-yl)-1,3,4-thiadiazol-2-yl]-4-[(oxan-4-yl)amino]pyridin-2-yl}pyrrolo[1,2-b]pyridazine-3-carbonitrile], half-maximal degradation (DC50) was put at 7 nM and the Dmax was 55%.

With `CCNc1cc(-c2ccc3cc(C#N)cnn23)ncc1-c1nnc(N2CC3CCC(C2)N3CC2CCN(c3ccc([C@H]4CCC(=O)NC4=O)cc3)CC2)s1` (racemic) [Example 102, rac-7-[5-(5-{8-[(1-{4-[(3R)-2,6-dioxopiperidin-3-yl]phenyl}piperidin-4-yl)methyl]-3,8-diazabicyclo[3.2.1]octan-3-yl}-1,3,4-thiadiazol-2-yl)-4-(ethylamino)pyridin-2-yl]pyrrolo[1,2-b]pyridazine-3-carbonitrile], the 50% degradation concentration (DC50) was 42 nM. Besides, the Dmax (read-out: Dmax) came out at 107%.

On to `N#Cc1cnn2c(-c3cc(NC4(C#N)CC4)c(-c4nnc(N5CC6CCC(C5)N6CC5CCN(c6ccc([C@H]7CCC(=O)NC7=O)cn6)CC5)s4)cn3)ccc2c1` (racemic) [Example 103, rac-7-{4-[(1-cyanocyclopropyl)amino]-5-(5-{8-[(1-{5-[(3R)-2,6-dioxopiperidin-3-yl]pyridin-2-yl}piperidin-4-yl)methyl]-3,8-diazabicyclo[3.2.1]octan-3-yl}-1,3,4-thiadiazol-2-yl)pyridin-2-yl}pyrrolo[1,2-b]pyridazine-3-carbonitrile], for which it took 12 nM to reach half-maximal degradation (DC50). Further, the Dmax (read-out: Dmax) was 106%.

The molecule `N#CCNc1cc(-c2ccc3cc(C#N)cnn23)ncc1-c1nnc(N2CC3CCC(C2)N3CC2CCN(c3ccc([C@H]4CCC(=O)NC4=O)cn3)CC2)s1` (racemic) [Example 104, rac-7-{4-[(cyanomethyl)amino]-5-(5-{8-[(1-{5-[(3R)-2,6-dioxopiperidin-3-yl]pyridin-2-yl}piperidin-4-yl)methyl]-3,8-diazabicyclo[3.2.1]octan-3-yl}-1,3,4-thiadiazol-2-yl)pyridin-2-yl}pyrrolo[1,2-b]pyridazine-3-carbonitrile] registered a DC50 of 4 nM. Also, under “read-out: Dmax”, the Dmax amounted to 115%.

One may read the DC50 as the concentration at which degradation of the target reaches its halfway point. Read a low DC50 as a more potent degrader. The Dmax is the greatest extent of degradation seen.
